The values that follow come from ChEMBL document CHEMBL1136411, “Imidazo[4,5-b]pyridines as corticotropin releasing factor receptor ligands” (Bioorg Med Chem Lett, 2003).

A value given as a limit tells only on which side of the number the result lay.

One may read the Ki as a dissociation constant, usually derived from enzyme kinetics or from competition with a known ligand. Low values mean higher affinity, high ones lower affinity. In general, Cmax refers to the highest concentration seen after dosing. In general, ED50 refers to the dose at which the effect has come halfway, by size or by number of responders. Low values mean an effect at a small dose, high ones a need for a large dose. In general, AUC refers to the area under the concentration-time curve, a measure of exposure. Usually half-life stands for how long it takes for the measured level to halve. High values mean slow decline, low ones rapid decline.

For data set [1], the target named is T1, Corticotropin releasing factor receptor (Rattus norvegicus, UniProt P47866+P35353). The experiment in a line: In vitro binding affinity to the CRF receptor in rat cortical homogenates.
Data set [2] can be described thus: Maximal plasma concentration at a dose of 1 mg/kg. It is filed as ADME, organism-based, Canis lupus familiaris. Set-up: dose 1 mg/kg. The conditions noted are these: dog.
The target of data set [3] is T1, Corticotropin releasing factor receptor. The data set can be described thus: In vitro binding affinity against Corticotropin releasing factor receptor in rat cortical homogenates.
Another data set deals with Rattus norvegicus. The data set can be described thus: Anxiolytic efficacy in rat after peroral administration. It counts as functional. The following applies: po.
Another data set relates to Canis familiaris. The data set can be described thus: Area under the curve at a dose of 1 mg/kg. It is filed as ADME, organism-based, Canis lupus familiaris. Further details: dose 1 mg/kg. The following applies: dog, in vivo.
Data set [4] is described as follows: Half life was determined. The following applies: dog, in vivo. It counts as ADME, organism-based, Canis lupus familiaris.

`CCc1nc2c(-c3ccc(C(F)(F)F)cc3Cl)ncnc2n1C(C1CC1)C1CC1` had an inhibition constant (Ki) in data set [1] of 1.8 nM.

On to `CCCC(C)n1c(CC)nc2c(-c3ccc(OC)cc3C)ccnc21` (stereo unspecified), for which the inhibition constant (Ki) in data set [1] was 0.8 nM. Compared with the last compound, the Ki is about 2.2-fold lower.

Compound `CCCC(C)n1c(CC)nc2c(-c3cc(C)c(OC)cc3C)ccnc21` (stereo unspecified) came in with an inhibition constant (Ki) in data set [1] of 0.6 nM.

Regarding `CCc1nc2c(-c3ccc(Cl)cc3Cl)ccnc2n1C(CCOC)C1CCC1` (stereo unspecified), the inhibitory constant (Ki) in data set [1] was 2.4 nM.

`CCC(CCOC)n1c(C2CC2)nc2c(-c3ccc(C(F)(F)F)cc3Cl)ccnc21` (stereo unspecified) had an inhibition constant (Ki) in data set [1] of 20.8 nM.

Turning to `CCCC(C)n1c(CC)nc2c(-c3cc(F)c(F)cc3Cl)ccnc21` (stereo unspecified), the inhibition constant (Ki) in data set [1] is reported as 2.4 nM.

Consider `CCc1nc2c(-c3ccc(Cl)cc3Cl)ccnc2n1C(CCOC)C1CC1` (stereo unspecified), for which the Ki in data set [1] was 1.5 nM. This Ki is about 1.6-fold lower than that of the compound before.

The compound `CCc1nc2c(-c3ccc(Cl)cc3Cl)ccnc2n1C(C)C1CCC1` (stereo unspecified) yielded an inhibition constant (Ki) in data set [1] of 1 nM.

In the case of `CCc1nc2c(-c3ccc(Cl)cc3Cl)ccnc2n1C(CC)CC`, the Ki in data set [1] was found to be 1 nM.

For the compound `CCc1nc2c(-c3ccc(C(F)(F)F)cc3Cl)ccnc2n1C(CC)COC` (stereo unspecified), in data set [1], the inhibition constant Ki was 4.7 nM.

For the compound `CCCC(C)n1c(CC)nc2c(-c3ccc(C(C)OC)cc3Cl)ccnc21` (stereo unspecified), the Ki in data set [1] is on record as 3.5 nM.

For the compound `CCCC(C)n1c(C(F)F)nc2c(-c3ccc(Cl)cc3Cl)ccnc21` (stereo unspecified), the inhibition constant (Ki) in data set [1] is 15.8 nM.

In turn, `CCCC(C)n1c(CC)nc2c(-c3ccc(Cl)cc3C(C)=O)ccnc21` (stereo unspecified) showed a Ki in data set [1] of 95.6 nM.

With `CCCC(C)n1c(CC)nc2c(-c3ccc(S(C)(=O)=O)cc3C(F)(F)F)ccnc21` (stereo unspecified), the Ki in data set [1] amounted to 6.8 nM.

The compound `CCc1nc2c(-c3ccc(Cl)cc3Cl)ccnc2n1C(C)CC` (stereo unspecified) registered an inhibition constant (Ki) in data set [1] of 1.3 nM.

The compound `CCc1nc2c(-c3ccc(Cl)cc3Cl)ccnc2n1[C@H](CC)C1CC1` registered a Ki in data set [1] of 0.2 nM.

`CCCC(C)n1c(CC)nc2c(-c3ccc(C(F)(F)F)cc3Cl)ccnc21` (stereo unspecified): the concentration in data set [2] peaked (Cmax) at 159 nM. For the same compound, the inhibition constant Ki in data set [3] and in data set [1] was 1.1 nM in each case. In the data set with Rattus norvegicus, this compound came in with a median effective dose (ED50) of 3 mg/kg. In the data set on Canis familiaris, this compound displayed an AUC of 0.604 µM·h. In data set [4], the half-life is 4.9 h.

For the compound `CCCC(C)n1c(CC)nc2c(-c3ccc(C(C)O)cc3Cl)ccnc21` (stereo unspecified), in data set [1], the inhibitory constant (Ki) is 5.1 nM. This counts as single-digit nanomolar.

In the case of `CCC(CCOC)n1c(COC)nc2c(-c3ccc(C(F)(F)F)cc3Cl)ccnc21` (stereo unspecified), the Ki in data set [1] is 82.7 nM.

In data set [1], `CCC(CCOC)n1c(OC)nc2c(-c3ccc(OC(F)(F)F)cc3Cl)ccnc21` (stereo unspecified) had an inhibition constant (Ki) of 1.9 nM.

For the compound `CCCC(C)n1c(CC)nc2c(-c3ccc(SC)cc3C(F)(F)F)ccnc21` (stereo unspecified), the Ki in data set [1] was 1.4 nM.

Compound `CCc1nc2c(-c3ccc(OC(F)F)cc3Cl)ccnc2n1C(C)C1CCC1` (stereo unspecified) displayed a Cmax in data set [2] of 185 nM. For the same compound, the Ki in data set [3] amounted to 0.7 nM. The ED50 in the data set with Rattus norvegicus is < 3 mg/kg. This compound also yielded an exposure (AUC) in the data set on Canis familiaris of 0.795 µM·h. Also, the half-life in data set [4] is 10 h.

In data set [1], `CCc1nc2c(-c3ccc(Cl)cc3Cl)ccnc2n1[C@H](C)C1CC1` showed a Ki of 0.6 nM.

Turning to `CCCC(C)n1c(CC)nc2c(-c3ccc(C(C)=O)cc3Cl)ccnc21` (stereo unspecified), the inhibition constant (Ki) in data set [1] was 1 nM.

In turn, `CCc1nc2c(-c3ccc(Cl)cc3Cl)ccnc2n1[C@@H](CC)C1CC1` yielded a Ki in data set [1] of 0.4 nM.

In data set [2], `CCCC(C)n1c(CC)nc2c(-c3ccc(OC)cc3C(F)(F)F)ccnc21` (stereo unspecified) gave a Cmax of 62 nM. Further, the Ki in data set [3] was 0.7 nM; in data set [1], 0.74 nM. Also, the 50% effect level in the data set with Rattus norvegicus (ED50) was put at a dose of 3 mg/kg. Moreover, in the data set on Canis familiaris, the AUC was found to be 0.182 µM·h. In data set [4], this compound gave a half-life of 5.9 h.

In data set [1], `CCCC(C)n1c(CC)nc2c(-c3ccc(/C(C)=N\OC)cc3Cl)ccnc21` (stereo unspecified) registered an inhibition constant (Ki) of 2.3 nM.
